Structures can show the parent of a compound that is named as a salt.
Columns and labels:
toxicity in mice (LD50) = details: mouse, in vivo
[1] = anticonvulsive activity in the screening in white mice; type: in vivo; details: oral dosages starting at 10 mg/kg
Excerpt: (§1) The hydrochloride of formula II, test substance number 1973, and the hydrogentartrate of formula II, test substance number 2961, have been used for pharmacological testing.

[2] = hexobarbital induced sleep prolongation in mice; type: in vivo; details: white mice; oral dosages starting at 10 mg/kg; dose dependent
Description: For example, they effect a significant increase of the duration of hexobarbital induced sleep in mice upon oral administration of from 1 to 100 mg/kg body weight. Electroencephalographical tests in rats show an increase of the classical and the paradoxical sleep phases upon oral administration of from 1 to 100 mg/kg body weight.
as §1

## COC1OC2OC3(CN4CCCCC4)C(O)CC(C2C)C13 (stereo not drawn) [test substance number 1973, 3-piperidinomethyl-4β-hydroxy-8-methoxy-10β-methyl-2,9-dioxatricyclo[4,3,1,0^3,7] decane hydrochloride]
Toxicity in mice (LD50); ip
  LD50: 406 mg/kg
Toxicity in mice (LD50); po
  LD50: 1140 mg/kg
[1]
  anticonvulsive activity: do not exhibit any anticonvulsive activity
[2]
  increase of the duration of hexobarbital induced sleep: remarkable increase

## COC1OC2OC3(CN4CCCCC4)C(O)CC(C2C)C13 (stereo not drawn) [test substance number 2961, 3-piperidinomethyl-4β-hydroxy-8-methoxy-10β-methyl-2,9-dioxatricyclo-[4,3,1,0^3,7] decane hydrogentartrate]
[1]
  anticonvulsive activity: do not exhibit any anticonvulsive activity
[2]
  increase of the duration of hexobarbital induced sleep: remarkable increase

From patent US4182889A, “Process for preparing 10-methyl-2,9-dioxatricyclo[4,3,1,0^3,7 ] decanes” (Kali-Chemie Pharma GmbH, priority 1977, dated 1980)
